Assay results from US8389524B2, “Tricyclic nitrogen containing compounds as antibacterial agents” (Glaxo Group Limited, priority 2007, dated 2013).
Where a name gives a salt, the structure may show the parent alone.

Tested on: Mycobacterium tuberculosis H37Rv
Experiment: Mycobacterium tuberculosis H37Rv Inhibition Assay (resazurin, MIC)
Assay type: cell-based
Settings: ATCC 25618 / H37Rv, 144 h, H37Rv strain (ATCC25618), Middlebrook 7H9+ADC, six days at 37° C., resazurin fluorescence after 48 hours, read-out: MIC value

Structure (SMILES)	MIC
O=C1CSc2ccc(CNC3CCN(C[C@@H]4Cn5c(=O)ccc6ncc(=O)n4c65)CC3)nc2N1 [Example 29, (2R)-2-[(4-{[(3-Oxo-3,4-dihydro-2H-pyrido[3,2-b][1,4]thiazin-6-yl)methyl]amino}-1-piperidinyl)methyl]-1,2-dihydro-3H,8H-2a,5,8a-triazaacenaphthylene-3,8-dione hydrochloride]	< 2 µg/mL
CC1(NCc2cc3c(cn2)OCS3)CCN(C[C@@H]2Cn3c(=O)ccc4ccc(=O)n2c43)CC1 [Example 24, (1R)-1-({4-Methyl-4-[([1,3]oxathiolo[5,4-c]pyridin-6-ylmethyl)amino]-1-piperidinyl}methyl)-1,2-dihydro-4H,9H-imidazo[1,2,3-ij]-1,8-naphthyridine-4,9-dione hydrochloride]	< 2 µg/mL
O=c1ccc2ccc(=O)n3c2n1CC3CN1CCC(NCc2cc3c(cn2)OCCS3)CC1 (racemic) [Example 63, 1-[(4-{[(2,3-Dihydro[1,4]oxathiino[2,3-c]pyridin-7-yl)methyl]amino}-1-piperidinyl)methyl]-1,2-dihydro-4H,9H-imidazo[1,2,3-ij]-1,8-naphthyridine-4,9-dione hydrochloride (2:1 mixture of R:S)]	< 2 µg/mL
CC1(NCc2cc3c(cn2)OCCS3)CCN(C[C@@H]2Cn3c(=O)ccc4ccc(=O)n2c43)CC1 [Example 23, (1R)-1-({4-[(2,3-Dihydro[1,4]oxathiino[2,3-c]pyridin-7-ylmethyl)amino]-4-methyl-1-piperidinyl}methyl)-1,2-dihydro-4H,9H-imidazo[1,2,3-ij]-1,8-naphthyridine-4,9-dione hydrochloride]	< 2 µg/mL
O=C1COc2cc(Cl)c(CNC3CCN(C[C@@H]4Cn5c(=O)ccc6ccc(=O)n4c65)CC3)nc2N1 [Example 32, (1R)-1-[(4-{[(7-Chloro-3-oxo-3,4-dihydro-2H-pyrido[3,2-b][1,4]oxazin-6-yl)methyl]amino}-1-piperidinyl)methyl]-1,2-dihydro-4H,9H-imidazo[1,2,3-ij]-1,8-naphthyridine-4,9-dione dihydrochloride]	< 2 µg/mL
O=C1CSc2cc(Br)c(CNC3CCN(CC4Cn5c(=O)ccc6ccc(=O)n4c65)CC3)nc2N1 (stereo not shown) [Example 4, 1-({4-[(7-Bromo-3-oxo-3,4-Dihydro-2H-pyrido[3,2-b][1,4]thiazin-6-yl-methyl)amino-1-piperidinyl}methyl)1,2-dihydro-4H,9H-imidazo[1,2,3-ij]-1,8-naphthyridine-4,9-dione hydrochloride]	< 2 µg/mL
O=c1ccc2ccc(=O)n3c2n1C[C@H]3CN1CCC(NCc2cc(F)c3c(c2)OCCO3)CC1 [Example 31, (1R)-1-[(4-{[(8-Fluoro-2,3-dihydro-1,4-benzodioxin-6-yl)methyl]amino}-1-piperidinyl)methyl]-1,2-dihydro-4H,9H-imidazo[1,2,3-ij]-1,8-naphthyridine-4,9-dione hydrochloride]	< 2 µg/mL
O=c1ccc2ccc(=O)n3c2n1C[C@H]3CN1CCC(NCc2ccc3c(c2)OCCO3)CC1 [Example 30, (1R)-1-({4-[(2,3-Dihydro-1,4-benzodioxin-6-ylmethyl)amino]-1-piperidinyl}methyl)-1,2-dihydro-4H,9H-imidazo[1,2,3-ij]-1,8-naphthyridine-4,9-dione hydrochloride]	< 2 µg/mL
O=c1ccc2ncc(=O)n3c2n1C[C@H]3CN1CCC(NCc2cc3c(cn2)SCO3)CC1 [Example 28, (2R)-2-({4-[([1,3]Oxathiolo[4,5-c]pyridin-6-ylmethyl)amino]-1-piperidinyl}methyl)-1,2-dihydro-3H,8H-2a,5,8a-triazaacenaphthylene-3,8-dione hydrochloride]	< 2 µg/mL

Same assay, conditions: ATCC 25618 / H37Rv, 144 h, read-out: MIC value, H37Rv strain (ATCC25618), Middlebrook 7H9+ADC, six days at 37° C., resazurin fluorescence after 48 hours

Structure (SMILES)	MIC
O=c1cnc2ccc(=O)n3c2n1C[C@H]3CN1CCC(NCc2cc3c(cn2)OCCS3)CC1 [Example 14, (1R)-1-({4-[(2,3-Dihydro-[1,4]oxathiino[2,3-c]pyridin-7-ylmethyl)amino]-1-piperidinyl}methyl)-1,2-dihydro-3H,8H-2a,5,8a-triazaacenaphthylene-3,8-dione hydrochloride]	< 2 µg/mL
O=c1ccc2ccc(=O)n3c2n1CC3CN1CCC(NCc2cc3c(cn2)OCS3)CC1 (stereo not shown) [Example 2, 1-({4-[([1,3]Oxathiolo[5,4-c]pyridin-6-ylmethyl)amino]-1-piperidinyl}methyl)-1,2-dihydro-4H,9H-imidazo[1,2,3-ij]-1,8-naphthyridine-4,9-dione hydrochloride]	< 2 µg/mL
O=c1cnc2ccc(=O)n3c2n1C[C@H]3CN1CCC(NCc2cc3c(cn2)OCCC3)CC1 [Example 37, (1R)-1-({4-[(3,4-Dihydro-2H-pyrano[2,3-c]pyridin-6-ylmethyl)amino]-1-piperidinyl}methyl)-1,2-dihydro-3H,8H-2a,5,8a-triazaacenaphthylene-3,8-dione hydrochloride]	< 2 µg/mL
O=c1ccc2ncc(=O)n3c2n1C[C@H]3CN1CCC(NCc2ccc3c(c2)OCCO3)CC1 [Example 40, (2R)-2-({4-[(2,3-Dihydro-1,4-benzodioxin-6-ylmethyl)amino]-1-piperidinyl}methyl)-1,2-dihydro-3H,8H-2a,5,8a-triazaacenaphthylene-3,8-dione hydrochloride]	< 2 µg/mL
O=c1cnc2ccc(=O)n3c2n1C[C@H]3CN1CCC(NCc2ccc3c(c2)OCCO3)CC1 [Example 44, (1R)-1-({4-[(2,3-Dihydro-1,4-benzodioxin-6-ylmethyl)amino]-1-piperidinyl}methyl)-1,2-dihydro-3H,8H-2a,5,8a-triazaacenaphthylene-3,8-dione hydrochloride]	< 2 µg/mL
O=C1CSc2cnc(CNC3CCN(C[C@@H]4Cn5c(=O)ccc6ccc(=O)n4c65)CC3)nc2N1 [Example 34, (1R)-1-[(4-{[(7-Oxo-6,7-dihydro-1H-pyrimido[5,4-b][1,4]thiazin-2-yl)methyl]amino}-1-piperidinyl)methyl]-1,2-dihydro-4H,9H-imidazo[1,2,3-ij]-1,8-naphthyridine-4,9-dione dihydrochloride]	< 2 µg/mL
N#Cc1cc(CNC2CCN(C[C@@H]3Cn4c(=O)cnc5ccc(=O)n3c54)CC2)cc2c1OCCO2 [Example 56, 7-{[(1-{[(1R)-3,8-Dioxo-1,2-dihydro-3H,8H-2a,5,8a-triazaacenaphthylen-1-yl]methyl}-4-piperidinyl)amino]methyl}-2,3-dihydro-1,4-benzodioxin-5-carbonitrile hydrochloride]	< 2 µg/mL
O=c1ccc2ncc(=O)n3c2n1C[C@H]3CN1CCC(NCc2cc3c(cn2)OCS3)CC1 [Example 16A, (2R)-2-({4-[([1,3]Oxathiolo[5,4-c]pyridin-6-ylmethyl)amino]-1-piperidinyl}methyl)-1,2-dihydro-3H,8H-2a,5,8a-triazaacenaphthylene-3,8-dione hydrochloride]	< 2 µg/mL
N#Cc1cc(CNC2CCN(C[C@@H]3Cn4c(=O)ccc5ncc(=O)n3c54)CC2)cc2c1OCCO2 [Example 42, 7-{[(1-{[(2R)-3,8-Dioxo-1,2-dihydro-3H,8H-2a,5,8a-triazaacenaphthylen-2-yl]methyl}-4-piperidinyl)amino]methyl}-2,3-dihydro-1,4-benzodioxin-5-carbonitrile hydrochloride]	< 2 µg/mL
O=c1ccc2ccc(=O)n3c2n1C[C@H]3CN1CCC(NCc2cc3c(cn2)CCCC3)CC1 [Example 7, (1R)-1-({4-[(5,6,7,8-Tetrahydro-3-isoquinolinylmethyl)amino]-1-piperidinyl}methyl)-1,2-dihydro-4H,9H-imidazo[1,2,3-ij]-1,8-naphthyridine-4,9-dione hydrochloride]	< 2 µg/mL
